The test system of one test is TNF-α. The test is described as follows: LPS-induced TNF-α release in primary microglia, LUMINEX immunoassay. It counts as cell-based, mouse. The settings on record: diapocynin 10 μM, LPS 24 hr. As for the experimental part: (§1) Primary microglia were obtained from 1-2 day old C57/b16 mouse pups. Upon collection, whole brains were kept in ice-cold DMEM-F12 medium containing 10% FBS, 1× sodium pyruvate, 1× NEAAs, 100 units pen/strep, and Q. After collection, the brains were placed in 0.25% trypsin-EDTA and incubated at 37° C., with gentle shaking every 5-10 min. After 30 min, the trypsin was removed, and the brains are washed in warmed medium twice. After washing, medium was added to the brains, and the brains were homogenized using gentle pipetting, starting with a 25 ml pipette and moving to smaller pipette tips as the brains were broken up. When the brains were sufficiently homogenized to a single-cell suspension, they were filtered with a 70 μm nylon filter, which allowed microglia and astrocytes to be collected. The resultant cell suspension was plated in T-75 flasks and allowed to grow for 12-14 days at 37° C., 5% CO2. […]
(§2) Cytokine levels of BV2 and microglial cells treated with diapocynin were determined by LUMINEX® multiplex immunoassay. […]
(§3) Cytokine standards and controls were adjusted to 40 μl volume and the LUMINEX® Samples were run on a LUMINEX® 200 Total System and analyzed with Multiplex Analysis—LUMINEX® Software (Invitrogen, Carlsbad, Calif.).

A further test concerns GFAP. Briefly: GFAP expression in substantia nigra (astroglial activation), immunostaining. The conditions noted are these: diapocynin 300 mg/kg gavage, 1 day pre-treatment + 4 days co-treatment with MPTP 25 mg/kg i.p. It counts as in vivo, C57BL/6 mice. As for the experimental part:
For checking inflammatory and oxidative stress markers, mice were gavaged diapocynin (300 mg/kg dose) 1 day before MPTP treatment (pre-treatment) and continued for another 4 days of co-treatment with MPTP. In the sub-acute MPTP regimen, MPTP (25 mg/kg) was injected intraperitoneally once per day from day 2 to day 7. Control mice received saline at the same dosage.
Four days after MPTP treatment, mice were perfused with 4% paraformaldehyde (PFA) and post-fixed with PFA and 30% sucrose, respectively. Next, fixed brains were cut into 30 μm sections and kept in 30% sucrose-ethylene glycol solutions at −20° C. On the day of staining, sections were rinsed with phosphate-buffered saline (PBS) and incubated with different primary antibodies, including anti-IBA-1 (DAKO, Carpinteria, Calif.), anti-GFAP (Millipore, Billerica, Mass.), anti-iNOS (Santa Cruz Biotechnology, Santa Cruz, Calif.), anti-3NT (Millipore), anti-4HNE (R&D Systems, Minneapolis, Minn.) and anti-gp91phox (Santa Cruz Biotechnology) for overnight at 4° C. Appropriate secondary antibodies (Alexa Fluor 488, 594, or 555 from Invitrogen, Carlsbad, Calif.) were used followed by incubation with 10 μg/ml Hoechst 33342 for 5 min at room temperature to stain the nucleus. Sections were viewed under a Nikon inverted fluorescence microscope (model TE-2000U; Nikon, Tokyo, Japan). […]

Another test relates to NOS2. The test is described as follows: LPS-induced NOS2 protein expression in BV2 cells, Western blot. The class given is cell-based, mouse. The settings on record: diapocynin 10 μM 30 min pretreatment, LPS 1 μg/ml 24 hr, back to basal level or below. As to the method: (§4) Two cell models of neuroinflammation were used to evaluate the anti-neuroinflammatory property of diapocynin including the mouse BV2 microglial cell line, as well as primary microglia isolated from mouse brains. BV2 cells were obtained from the American Tissue Culture Collection. BV2 cells were maintained in RPMI containing 10% FBS and 100 units of pen/strep at 37° C. and 5% CO2. For treatments, RPMI containing 2% FBS and 100 units of pen/strep was used.
(§5) BV2 cell lysates containing equal amounts of protein were loaded in each lane and separated on a 10% SDS-PAGE gel. After separation, the protein was transferred to a nitrocellulose membrane. Non-specific binding sites were blocked with Li-cor blocking buffer for 45 min. The membranes were then treated with primary antibodies directed against NOS2 (mouse monoclonal 1:200) and p67phox (rabbit polyclonal 1:200). To confirm equal amounts of protein were loaded, membranes were also probed for β-actin with a β-actin antibody (dilution of 1:10,000). Secondary antibodies, donkey anti-mouse (Invitrogen) and conjugated anti-rabbit IgG (Rockland), were used at a dilution of 1:10,000 for 1 hr at room temperature. The membranes were imaged and captured using a Li-COR Odyssey infrared imaging system and software.

The test system of another test is p67phox. Briefly: LPS-induced p67phox protein expression in BV2 cells, Western blot. The conditions noted are these: diapocynin 10 μM 30 min pretreatment, LPS 1 μg/ml 24 hr, back to basal level or below. It counts as cell-based, mouse. As for the experimental part: as §4, §5
Background: Immunoblotting shows a protein as a band on a membrane.

Another test concerns IL-1β. Briefly: LPS-induced IL-1β release in primary microglia, LUMINEX immunoassay. The class given is cell-based, mouse. The conditions noted are these: diapocynin 10 μM, LPS 24 hr. As for the experimental part: as §1, §2, §3

Turning to `COc1cc(C(C)=O)cc(-c2cc(C(C)=O)cc(OC)c2O)c1O` [diapocynin], the “blocking LPS-induced release of TNF-α” value in the test on TNF-α is on record as “very effective”. Also, in the test on GFAP, the “GFAP protein expression in substantia nigra” value is “inhibition”. The “reducing LPS-induced NOS2 protein expression” value in the test on NOS2 is listed as “extremely effective”. Moreover, the “reducing LPS-induced p67phox protein expression” value in the test on p67phox was “extremely effective”. Further, in the test with IL-1β, the “blocking LPS-induced release of IL-1β” value is recorded as “very effective”.

Source of the values: patent publication US8962600B2, “Neuroprotective compounds and their use” (The Medical College of Wisconsin, Inc., priority 2009, dated 2015).
